{
  "source": "patent US20250230193A1",
  "about": "“CYCLIC COMPOUND HAVING SELECTIVE KRAS INHIBITORY EFFECT ON HRAS AND NRAS” (CHUGAI SEIYAKU KABUSHIKI KAISHA, priority 2022, published 2025)",
  "key": {"[1]": {"target": "GDP-bound HRAS wild-type protein (Homo sapiens, UniProt P01112)", "sequence (P01112 whole entry)": "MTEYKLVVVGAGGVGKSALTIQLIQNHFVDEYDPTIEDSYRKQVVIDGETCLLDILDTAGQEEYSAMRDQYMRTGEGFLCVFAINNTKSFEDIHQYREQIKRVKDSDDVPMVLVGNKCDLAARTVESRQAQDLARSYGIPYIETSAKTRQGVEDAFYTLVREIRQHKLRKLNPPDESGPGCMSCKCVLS", "assay": "Binding to HRAS by surface plasmon resonance (SPR), Single Cycle Kinetics", "conditions": "KD ratio HRAS/KRAS, SPR"}, "[2]": {"target": "GDP-bound NRAS wild-type protein (Homo sapiens, UniProt P01111)", "sequence (P01111 whole entry)": "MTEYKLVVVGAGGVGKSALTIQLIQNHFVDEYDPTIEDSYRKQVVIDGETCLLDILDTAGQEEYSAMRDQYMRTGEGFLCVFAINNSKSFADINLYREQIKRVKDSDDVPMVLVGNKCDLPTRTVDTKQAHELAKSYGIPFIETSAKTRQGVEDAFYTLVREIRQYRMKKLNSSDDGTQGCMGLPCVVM", "assay": "Binding to NRAS by surface plasmon resonance (SPR), Single Cycle Kinetics", "conditions": "KD ratio NRAS/KRAS, SPR"}},
  "note": "Where a SMILES comes first, the peptide text is derived from it. Bridges are numbered along the chain shown (N, C = ends). [ ]: non-standard residue; d: D form. The star is where a group is joined. hPhe(3-Cl-4-CF3) = N[C@@H](CCc1ccc(C(F)(F)F)c(Cl)c1)C(=O)O; NPrPhe(4-CF3) = CCCN[C@@H](Cc1ccc(C(F)(F)F)cc1)C(=O)O; NMeGly(cPent) = CN[C@H](C(=O)O)C1CCCC1; Pro(4,4-F2) = O=C(O)[C@@H]1CC(F)(F)CN1; Hyp = O=C(O)[C@@H]1C[C@@H](O)CN1; NMeD = CN[C@@H](CC(=O)O)C(=O)O; NMeL = CN[C@@H](CC(C)C)C(=O)O; Morpholide = C1CN(*)CCO1; NMeA = CN[C@@H](C)C(=O)O; Ac5c = NC1(C(=O)O)CCCC1; Aze = O=C(O)[C@@H]1CCN1; Ac4c = NC1(C(=O)O)CCC1; Sar = CNCC(=O)O",
  "data": [
    {"smiles": "CCCN1C(=O)CN(C)C(=O)[C@@H]2CCN2C(=O)[C@H]([C@@H](C)CC)NC(=O)[C@H](CC(C)C)N(C)C(=O)C[C@@H](C(=O)N2CCOCC2)N(C)C(=O)[C@H](C2CCCC2)N(C)C(=O)C2(CCC2)NC(=O)[C@@H]2CC(F)(F)CN2C(=O)[C@H](CCc2ccc(C(F)(F)F)c(Cl)c2)NC(=O)CN(C)C(=O)[C@@H]1Cc1ccc(C(F)(F)F)cc1", "note": "[PP0404] ([NMeL]I[Aze][Sar][NPrPhe(4-CF3)][Sar][hPhe(3-Cl-4-CF3)][Pro(4,4-F2)][Ac4c][NMeGly(cPent)][NMeD]-Morpholide; lactam N-11)", "values": [
      {"measurement": "HRAS/KRAS (ratio of KD for GDP-bound HRAS wild-type to KD for KRAS)", "setting": "[1]", "value": "C (A compound having a KD ratio of 0.1 or more and less than 3 is denoted as C)"},
      {"measurement": "NRAS/KRAS (ratio of KD for GDP-bound NRAS wild-type to KD for KRAS)", "setting": "[2]", "value": "B (a compound having 3 or more and less than 10 is denoted as B)"}
    ]},
    {"smiles": "CCCN1C(=O)CN(C)C(=O)[C@@H]2CCN2C(=O)[C@H]([C@@H](C)CC)NC(=O)[C@H](CC(C)C)N(C)C(=O)C[C@@H](C(=O)N2CCOCC2)N(C)C(=O)[C@H](C2CCCC2)N(C)C(=O)C2(CCC2)NC(=O)[C@@H]2C[C@@H](OCC)CN2C(=O)[C@H](CCc2ccc(C(F)(F)F)c(Cl)c2)NC(=O)CN(C)C(=O)[C@@H]1Cc1ccc(C(F)(F)F)cc1", "note": "[PP0405] ([NMeL]I[Aze][Sar][NPrPhe(4-CF3)][Sar][hPhe(3-Cl-4-CF3)][Hyp](Et)[Ac4c][NMeGly(cPent)][NMeD]-Morpholide; lactam N-11)", "values": [
      {"measurement": "HRAS/KRAS (ratio of KD for GDP-bound HRAS wild-type to KD for KRAS)", "setting": "[1]", "value": "C (A compound having a KD ratio of 0.1 or more and less than 3 is denoted as C)"},
      {"measurement": "NRAS/KRAS (ratio of KD for GDP-bound NRAS wild-type to KD for KRAS)", "setting": "[2]", "value": "B (a compound having 3 or more and less than 10 is denoted as B)"}
    ]},
    {"smiles": "CCCN1C(=O)[C@@H]2CCN2C(=O)[C@H](C)N(C)C(=O)[C@H]([C@@H](C)CC)NC(=O)[C@H](CC(C)C)N(C)C(=O)C[C@@H](C(=O)N2CCOCC2)N(C)C(=O)[C@H](C2CCCC2)N(C)C(=O)C2(CCC2)NC(=O)[C@@H]2C[C@@H](OCC)CN2C(=O)[C@H](CCc2ccc(C(F)(F)F)c(Cl)c2)NC(=O)CN(C)C(=O)[C@@H]1Cc1ccc(C(F)(F)F)cc1", "note": "[PP0406] ([NMeL]I[NMeA][Aze][NPrPhe(4-CF3)][Sar][hPhe(3-Cl-4-CF3)][Hyp](Et)[Ac4c][NMeGly(cPent)][NMeD]-Morpholide; lactam N-11)", "values": [
      {"measurement": "HRAS/KRAS (ratio of KD for GDP-bound HRAS wild-type to KD for KRAS)", "setting": "[1]", "value": "B (a compound having 3 or more and less than 10 is denoted as B)"},
      {"measurement": "NRAS/KRAS (ratio of KD for GDP-bound NRAS wild-type to KD for KRAS)", "setting": "[2]", "value": "C (A compound having a KD ratio of 0.1 or more and less than 3 is denoted as C)"}
    ]},
    {"smiles": "CCCN1C(=O)[C@@H]2CCN2C(=O)CN(C)C(=O)[C@H]([C@@H](C)CC)NC(=O)[C@H](CC(C)C)N(C)C(=O)C[C@@H](C(=O)N2CCOCC2)N(C)C(=O)[C@H](C2CCCC2)N(C)C(=O)C2(CCC2)NC(=O)[C@@H]2CCCN2C(=O)[C@H](CCc2ccc(C(F)(F)F)c(Cl)c2)NC(=O)CN(C)C(=O)[C@@H]1Cc1ccc(C(F)(F)F)cc1", "note": "[PP0407] ([NMeL]I[Sar][Aze][NPrPhe(4-CF3)][Sar][hPhe(3-Cl-4-CF3)]P[Ac4c][NMeGly(cPent)][NMeD]-Morpholide; lactam N-11)", "values": [
      {"measurement": "HRAS/KRAS (ratio of KD for GDP-bound HRAS wild-type to KD for KRAS)", "setting": "[1]", "value": "B (a compound having 3 or more and less than 10 is denoted as B)"},
      {"measurement": "NRAS/KRAS (ratio of KD for GDP-bound NRAS wild-type to KD for KRAS)", "setting": "[2]", "value": "C (A compound having a KD ratio of 0.1 or more and less than 3 is denoted as C)"}
    ]},
    {"smiles": "CCCN1C(=O)[C@@H]2CCN2C(=O)CN(C)C(=O)[C@H]([C@@H](C)CC)NC(=O)[C@H](CC(C)C)N(C)C(=O)C[C@@H](C(=O)N2CCOCC2)N(C)C(=O)[C@H](C2CCCC2)N(C)C(=O)C2(CCCC2)NC(=O)[C@@H]2CC(F)(F)CN2C(=O)[C@H](CCc2ccc(C(F)(F)F)c(Cl)c2)NC(=O)CN(C)C(=O)[C@@H]1Cc1ccc(C(F)(F)F)cc1", "note": "[PP0408] ([NMeL]I[Sar][Aze][NPrPhe(4-CF3)][Sar][hPhe(3-Cl-4-CF3)][Pro(4,4-F2)][Ac5c][NMeGly(cPent)][NMeD]-Morpholide; lactam N-11)", "values": [
      {"measurement": "HRAS/KRAS (ratio of KD for GDP-bound HRAS wild-type to KD for KRAS)", "setting": "[1]", "value": "B (a compound having 3 or more and less than 10 is denoted as B)"},
      {"measurement": "NRAS/KRAS (ratio of KD for GDP-bound NRAS wild-type to KD for KRAS)", "setting": "[2]", "value": "C (A compound having a KD ratio of 0.1 or more and less than 3 is denoted as C)"}
    ]},
    {"smiles": "CCCN1C(=O)[C@@H]2CCN2C(=O)CN(C)C(=O)[C@H]([C@@H](C)CC)NC(=O)[C@H](CC(C)C)N(C)C(=O)C[C@@H](C(=O)N2CCOCC2)N(C)C(=O)[C@H](C2CCCC2)N(C)C(=O)C2(CCC2)NC(=O)[C@@H]2CC(F)(F)CN2C(=O)[C@H](CCc2ccc(C(F)(F)F)c(Cl)c2)NC(=O)CN(C)C(=O)[C@@H]1Cc1ccc(C(F)(F)F)cc1", "note": "[PP0409] ([NMeL]I[Sar][Aze][NPrPhe(4-CF3)][Sar][hPhe(3-Cl-4-CF3)][Pro(4,4-F2)][Ac4c][NMeGly(cPent)][NMeD]-Morpholide; lactam N-11)", "values": [
      {"measurement": "HRAS/KRAS (ratio of KD value with respect to GDP-bound HRAS wild-type protein to KD value with respect to KRAS)", "setting": "[1]", "value": "C (A compound having a KD ratio of 0.1 or more and less than 3 is denoted as C)"},
      {"measurement": "NRAS/KRAS (ratio of KD value with respect to GDP-bound NRAS wild-type protein to KD value with respect to KRAS)", "setting": "[2]", "value": "C (A compound having a KD ratio of 0.1 or more and less than 3 is denoted as C)"}
    ]},
    {"smiles": "CCCN1C(=O)[C@@H]2CCN2C(=O)CN(C)C(=O)[C@H]([C@@H](C)CC)NC(=O)[C@H](CC(C)C)N(C)C(=O)C[C@@H](C(=O)N2CCOCC2)N(C)C(=O)[C@H](C2CCCC2)N(C)C(=O)C2(CCCC2)NC(=O)[C@@H]2C[C@@H](OCC)CN2C(=O)[C@H](CCc2ccc(C(F)(F)F)c(Cl)c2)NC(=O)CN(C)C(=O)[C@@H]1Cc1ccc(C(F)(F)F)cc1", "note": "[PP0410] ([NMeL]I[Sar][Aze][NPrPhe(4-CF3)][Sar][hPhe(3-Cl-4-CF3)][Hyp](Et)[Ac5c][NMeGly(cPent)][NMeD]-Morpholide; lactam N-11)", "values": [
      {"measurement": "HRAS/KRAS (ratio of KD value with respect to GDP-bound HRAS wild-type protein to KD value with respect to KRAS)", "setting": "[1]", "value": "B (a compound having 3 or more and less than 10 is denoted as B)"},
      {"measurement": "NRAS/KRAS (ratio of KD value with respect to GDP-bound NRAS wild-type protein to KD value with respect to KRAS)", "setting": "[2]", "value": "C (A compound having a KD ratio of 0.1 or more and less than 3 is denoted as C)"}
    ]},
    {"smiles": "CCCN1C(=O)[C@@H]2CCN2C(=O)CN(C)C(=O)[C@H]([C@@H](C)CC)NC(=O)[C@H](CC(C)C)N(C)C(=O)C[C@@H](C(=O)N2CCOCC2)N(C)C(=O)[C@H](C2CCCC2)N(C)C(=O)C2(CCC2)NC(=O)[C@@H]2C[C@@H](OCC)CN2C(=O)[C@H](CCc2ccc(C(F)(F)F)c(Cl)c2)NC(=O)CN(C)C(=O)[C@@H]1Cc1ccc(C(F)(F)F)cc1", "note": "[PP0411] ([NMeL]I[Sar][Aze][NPrPhe(4-CF3)][Sar][hPhe(3-Cl-4-CF3)][Hyp](Et)[Ac4c][NMeGly(cPent)][NMeD]-Morpholide; lactam N-11)", "values": [
      {"measurement": "HRAS/KRAS (ratio of KD value with respect to GDP-bound HRAS wild-type protein to KD value with respect to KRAS)", "setting": "[1]", "value": "C (A compound having a KD ratio of 0.1 or more and less than 3 is denoted as C)"},
      {"measurement": "NRAS/KRAS (ratio of KD value with respect to GDP-bound NRAS wild-type protein to KD value with respect to KRAS)", "setting": "[2]", "value": "C (A compound having a KD ratio of 0.1 or more and less than 3 is denoted as C)"}
    ]},
    {"smiles": "CCCN1C(=O)CN(C)C(=O)CN(C)C(=O)[C@H]([C@@H](C)CC)NC(=O)[C@H](CC(C)C)N(C)C(=O)C[C@@H](C(=O)N(C)C)N(C)C(=O)[C@H](C2CCCC2)N(C)C(=O)C2(CCC2)NC(=O)[C@@H]2CCCN2C(=O)[C@H](CCc2ccc(C(F)(F)F)c(Cl)c2)NC(=O)CN(C)C(=O)[C@@H]1Cc1ccc(C(F)(F)F)cc1", "note": "[PP0412] ([NMeL]I[Sar][Sar][NPrPhe(4-CF3)][Sar][hPhe(3-Cl-4-CF3)]P[Ac4c][NMeGly(cPent)][NMeD]-NMe2; lactam N-11)", "values": [
      {"measurement": "HRAS/KRAS (ratio of KD value with respect to GDP-bound HRAS wild-type protein to KD value with respect to KRAS)", "setting": "[1]", "value": "C (A compound having a KD ratio of 0.1 or more and less than 3 is denoted as C)"},
      {"measurement": "NRAS/KRAS (ratio of KD value with respect to GDP-bound NRAS wild-type protein to KD value with respect to KRAS)", "setting": "[2]", "value": "B (a compound having 3 or more and less than 10 is denoted as B)"}
    ]}
  ]
}
